In data set [1] the test system is Abeta 42 oligomer-induced synapse loss in primary neurons. The experiment in a line: Abeta oligomer-induced synapse loss assay. The data set is classed as cell-based.
Method: The number of synapses can also be quantified in this assay by immunofluorochemistry.
Primary hippocampal neuronal culture is established as in the membrane trafficking assay above. […] Pretreatment with test compounds for 1 hr and addition of Abeta oligomers or no oligomer (vehicle alone) is followed by incubation for an additional 23 hrs.
The plates are then washed 3× with PBS for 5 min each. The plates are blocked at RT for 1 hr in 5% goat serum and 0.5% Triton X-100 in PBS. Primary antibodies (anti-MAP 2 polyclonal, Millipore #AB5622 and anti-Beta Amyloid 6E10 monoclonal, Covance #SIG-39300, at 1 microgram/ml, and rabbit polyclonal anti-synaptophysin, Anaspec, at 0.2 microgram/ml) were diluted 1:1000 in 5% goat serum with PBS. Primary antibodies are incubated overnight at 4° C. The plates are then washed 3× with PBS for 5 min each. Secondary antibodies (Alex Flor 488 polyclonal, Invitrogen #A11008 and Alexa Flor 647 monoclonal, Invitrogen #A21235) are diluted 1:1000 in 5% goat serum with PBS. Secondary antibodies are incubated at RT for 1 hr. The plates are washed once with PBS. DAPI (4′,6-diamidino-2-phenylindole, Invitrogen) is then applied at 0.03 ug/ul and incubated at RT for 5 min, then washed with PBS.
The test system of another data set is caspase-3. Particulars: cited from earlier work; for caspase-3 activation: tumor cells and neurons, WO2013/029060 FIGS. 10A and 10B.
Data set [2] has as its system MDA-MB-435 or MDA-MB231 or SKOV-3 cells. The experiment in a line: MTS tumor cell viability assay (agonist/antagonist activity of sigma-2 ligands). The data set is classed as cell-based. The procedure:
The cytotoxicity of test compounds is determined using the CellTiter96 Aqueous One Solution Assay (Promega, Madison, Wis.). Briefly, MDA-MB-435 or MDA-MB231 or SKOV-3 cells were seeded in a 96-well plate at a density of 2000 cells/well on the day prior to treatment with sigma-2 receptor selective ligands. After a 24 hour treatment, the CellTiter 96 AQueous One Solution Reagent is added to each well, and the plate incubated for 2 hours at 37° C. The plate is read at 490 nm in a Victor3 plate reader (PerkinElmer Life and Analytical Sciences, Shelton, Conn.). The EC^50 value, defined as the concentration of the sigma ligand required to inhibit cell viability by 50% relative to untreated cells, is determined from the dose response curve for each cell line. Siramesine is accepted as an agonist.

The next data set has as its system neuronal cultures. Put plainly: Nuclear intensity/morphology in neuronal cultures treated with sigma compounds. Particulars: 24 hours treatment, compared to vehicle. The data set is classed as cell-based. The procedure:
Neuronal cultures are treated with various concentrations of sigma compounds for 24 hours and nuclear intensity compared to vehicle is measured. […] Isoindoline test compounds of the present disclosure are analyzed in this assay to help determine neuronal phenotype, results are shown in Table 2.

Entries after “also recorded” stand apart in the source; their conditions may differ.

`O=C(CCCN1CCC(O)(c2ccc(Cl)cc2)CC1)c1ccc(F)cc1` [haloperidol]: in data set [1], the “elimination of Abeta 42 oligomer-induced synapse loss” value is reported as “completely eliminated synapse loss”.
For the compound `CCC(Oc1ccc(Cl)cc1)C(=O)OC1CC2CCC(C1)N2C` (stereo not drawn) [SM-21], in data set [1], the “elimination of Abeta 42 oligomer-induced synapse loss” value is reported as “only weakly active in eliminating synapse loss” and the “recovery of synapse loss” value stood at 20%.
In the case of `Fc1ccc(-n2cc(CCCCN3CCC4(CC3)OCc3ccccc34)c3ccccc32)cc1` [Siramesine], the caspase-3 activation entry with caspase-3 was “activate caspase-3 in tumor cells and neurons; also recorded: induces caspase-3 activity”. In data set [2], the Action entry is given as “Full agonist”. Besides, in the data set on neuronal cultures, the “nuclear morphology / nuclear intensity in neurons” value is on record as “cause significant abnormal nuclear morphology in neurons”.
With `COc1ccc(C)cc1NC(=O)OC1C[C@H]2CCC[C@@H](C1)N2CCCCCCN` (stereo partly drawn) [SV-119], in the data set on caspase-3, the caspase-3 activation entry was “activate caspase-3 in tumor cells and neurons”. The Action result in data set [2] is listed as “Full agonist”. In the data set with neuronal cultures, the “nuclear morphology / nuclear intensity in neurons” value is “cause significant abnormal nuclear morphology in neurons”.
On to `COc1cc2c(cc1OC)CN(CCCCNC(=O)c1cc(C)ccc1OC)CC2` [RHM-1, N-[4-(3,4-dihydro-6,7-dimethoxyisoquinolin-2(1H)-yl)butyl]-2-methoxy-5-methylbenzamide], for which the “block of caspase-3 activation by agonist SV-119 in neurons” value in the data set with caspase-3 (neurons, WO2013/029060 FIG. 10B) is “not able to block activation”. In addition, in the data set on caspase-3, the caspase-3 activation entry was “do not induce caspase-3 activity”. Besides, the “inhibition of caspase-3 activation in tumor cells” value in the data set on caspase-3 (tumor cells, WO2013/029060 FIG. 10A) is listed as “inhibits the activation in tumor cells”. Further, the Action result in data set [2] was “Antagonist”. For the same compound, the “nuclear morphology / nuclear intensity in neurons” value in the data set with neuronal cultures is given as “do not decrease nuclear intensity”.
For `CCCN(CCC)CCc1ccc(OC)c(OCCc2ccccc2)c1` [NE-100], the “elimination of Abeta 42 oligomer-induced synapse loss” value in data set [1] was “completely eliminated synapse loss”.

Source of the values: patent US11691947B2, “Isoindoline compositions and methods for treating neurodegenerative disease” (priority 2014, dated 2023).
